Measured values published in patent US7037644B1, “Means and methods for monitoring non-nucleoside reverse transcriptase inhibitor antiretroviral therapy and guiding therapeutic decisions in the treatment of HIV/AIDS” (ViroLogic, Inc., priority 1998, dated 2006).

System: codon 181 mutant HIV-1
Experiment: not given
Conditions: cited from earlier work

Row | SMILES | change in IC between wild-type and codon 181 mutant HIV-1 [fold]
1 | CCc1cc(CCc2nc3c(Cl)ccc(Cl)c3o2)c(=S)[nH]c1C [L-702,019] | 3

System: RTV-268, patient 97-268 (RT M41L, D67N, M184V, L210W, T215Y, K219Q, P236L)
Experiment: Phenotypic susceptibility assay (patient RTV)
Format: cell-based, HIV-1
Conditions: patient virus RTV-268 vs reference virus
Text: The resistance test vectors containing a functional luciferase gene cassette were constructed and host cells were transfected with the resistance test vector DNA. The resistant test vectors contained patient-derived reverse transcriptase and protease sequences that were either susceptible or resistant to the antiretroviral agents, such as nucleoside reverse transcriptase inhibitors, non-nucleoside reverse transcriptase inhibitors and protease inhibitors. The resistance test vector viral particles produced by transfecting the resistance test vector DNA into host cells, either in the presence or absence of protease inhibitors, were used to infect target host cells grown either in the absence of NRTI or NNRTI or in the presence of increasing concentrations of the drug. The amount of luciferase activity produced in infected target host cells in the presence of drug was compared to the amount of luciferase produced in infected target host cells in the absence of drug. Drug resistance was measured as the amount of drug required to inhibit by 50% the luciferase activity detected in the absence of drug (inhibitory concentration 50%, IC50). The IC50 values were determined by plotting percent drug inhibition vs. log10 drug concentration.
Host cells were seeded in 10-cm-diameter dishes and were transfected several days after plating with resistance test vector plasmid DNA and the envelope expression vector. Transfections were performed using a calcium-phosphate precipitation procedure. The cell culture media containing the DNA precipitate was replaced with fresh medium, from one to 24 hours, after transfection. Cell culture media containing resistance test vector viral particles was harvested one to four days after transfection and was passed through a […] filter before being stored at […]. HIV capsid protein (p24) levels in the harvested cell culture media were determined by an EIA method as described by the manufacturer (SIAC; Frederick, Md.). Before infection, target cells (293 and 293/T) were plated in cell culture media. Control infections were performed using cell culture media from mock transfections (no DNA) or transfections containing the resistance test vector plasmid DNA without the envelope expression plasmid. One to three or more days after infection the media was removed and cell lysis buffer (Promega) was added to each well. Cell lysates were assayed for luciferase activity (FIG. 3). The inhibitory effect of the drug was determined using the following equation: % luciferase inhibition=1−(RLUluc [drug]÷RLUluc)×100 where RLUluc [drug] is the relative light unit of luciferase activity in infected cells in the presence of drug and RLUluc is the Relative Light Unit of luciferase activity in infected cells in the absence of drug. IC50 values were obtained from the sigmoidal curves that were generated from the data by plotting the percent inhibition of luciferase activity vs. the log10 drug concentration. The drug inhibition curves are shown in (FIG. 3).
A resistance test vector was constructed as described in Example 1 from a patient sample designated 97-268. This patient had been treated with AZT and 3TC (NRTIs), indinavir and saquinavir (PRIs) and delavirdine (an NNRTI) for periods varying from 1 month to 2 years. Isolation of viral RNA and RT/PCR was used to generate a patient derived segment that comprised viral sequences coding for all of PR and amino acids 1-313 of RT. The patient derived segment was inserted into a indicator gene viral vector to generate a resistance test vector designated RTV-268. RTV-268 was then tested using the phenotypic susceptibility assay to determine accurately and quantitatively the level of susceptibility to a panel of anti-retroviral drugs. This panel of anti-retroviral drugs comprised members of the classes known as NRTIs (AZT, 3TC, d4T, ddI and ddC), NNRTIs (delavirdine and nevirapine), and PRIs (indinavir, nelfinavir, ritonavir, and saquinavir). An IC50 was determined for each drug tested. […]

Row | SMILES | change in susceptibility
2 | O=c1[nH]cnc2c1ncn2[C@H]1CC[C@@H](CO)O1 [ddI] | slight shifts in susceptibility
3 | Cc1cn([C@H]2C=C[C@@H](CO)O2)c(=O)[nH]c1=O [d4T] | slight shifts in susceptibility
4 | Nc1ccn([C@@H]2CS[C@H](CO)O2)c(=O)n1 [3TC] | significant resistance
5 | Nc1ccn([C@H]2CC[C@@H](CO)O2)c(=O)n1 [ddC] | slight shifts in susceptibility
6 | Cc1cn([C@H]2C[C@H](N=[N+]=[N-])[C@@H](CO)O2)c(=O)[nH]c1=O [AZT] | significant resistance
